Source: patent publication US7135466B2 (Kirin Beer Kabushiki Kaisha, priority 1999, dated 2006)
Read-outs that look alike come from different tables or passages of the source. Blank lines part the entries; values can stand above or below the compound they belong to.

How the values were obtained:
PDGF-Ra = biological target: T1, PDGF-Ra (Homo sapiens, UniProt P16234); test: Inhibitory activity against PDGF-Ra phosphorylation by PDGF-AA stimulation using G292; format: cell-based; conditions: for IC50: > means inhibition at indicated concentration not more than 50%, < and << not less than 50%, read-out: PDGF (E) IC50; for inhibition at 0.1 µM: G292, at 100 nM, read-out: PDGF (E) inhibition (%) at 100 nM
T1 construct: host or cells: G-292 human osteosarcoma cells
How it was run: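 Read-out: A450 from a sandwich ELISA (PY-20 capture, anti-PDGF-Ra detection, peroxidase colour) of lysates from G-292 cells given compound for 1 hr at 37 °C before a 5 min challenge with PDGF-AA at 50 ng/ml.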

c-kit = biological target: T2, c-kit (Homo sapiens, UniProt P10721); test: Inhibitory activity against c-kit autophosphorylation (MO7e cells, h-SCF); format: cell-based; conditions: for IC50: MO7e cells, read-out: c-kit IC50; for inhibition at 1 µM: Mo7e, at 1000 nM
T2 construct: MO7e (human megakaryocytic leukemia cell line) which had been arrested for 20 hr; endogenous in cells; host or cells: MO7e human megakaryocytic leukemia cell line
How it was run: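 Ligand-induced c-kit tyrosine phosphorylation is measured in MO7e cells that were quiesced 20 hr and preincubated with compound for 1 hr prior to a 5 min pulse of 50 ng/ml human SCF. Phospho-c-kit is detected by anti-phosphotyrosine capture ELISA, A450.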

[1] = figure within parentheses in >100( )
[2] = figure within parentheses in −( ) or >1000( )
[3] = figure in parentheses in >100( )

T1 sequence (P16234 24-1089): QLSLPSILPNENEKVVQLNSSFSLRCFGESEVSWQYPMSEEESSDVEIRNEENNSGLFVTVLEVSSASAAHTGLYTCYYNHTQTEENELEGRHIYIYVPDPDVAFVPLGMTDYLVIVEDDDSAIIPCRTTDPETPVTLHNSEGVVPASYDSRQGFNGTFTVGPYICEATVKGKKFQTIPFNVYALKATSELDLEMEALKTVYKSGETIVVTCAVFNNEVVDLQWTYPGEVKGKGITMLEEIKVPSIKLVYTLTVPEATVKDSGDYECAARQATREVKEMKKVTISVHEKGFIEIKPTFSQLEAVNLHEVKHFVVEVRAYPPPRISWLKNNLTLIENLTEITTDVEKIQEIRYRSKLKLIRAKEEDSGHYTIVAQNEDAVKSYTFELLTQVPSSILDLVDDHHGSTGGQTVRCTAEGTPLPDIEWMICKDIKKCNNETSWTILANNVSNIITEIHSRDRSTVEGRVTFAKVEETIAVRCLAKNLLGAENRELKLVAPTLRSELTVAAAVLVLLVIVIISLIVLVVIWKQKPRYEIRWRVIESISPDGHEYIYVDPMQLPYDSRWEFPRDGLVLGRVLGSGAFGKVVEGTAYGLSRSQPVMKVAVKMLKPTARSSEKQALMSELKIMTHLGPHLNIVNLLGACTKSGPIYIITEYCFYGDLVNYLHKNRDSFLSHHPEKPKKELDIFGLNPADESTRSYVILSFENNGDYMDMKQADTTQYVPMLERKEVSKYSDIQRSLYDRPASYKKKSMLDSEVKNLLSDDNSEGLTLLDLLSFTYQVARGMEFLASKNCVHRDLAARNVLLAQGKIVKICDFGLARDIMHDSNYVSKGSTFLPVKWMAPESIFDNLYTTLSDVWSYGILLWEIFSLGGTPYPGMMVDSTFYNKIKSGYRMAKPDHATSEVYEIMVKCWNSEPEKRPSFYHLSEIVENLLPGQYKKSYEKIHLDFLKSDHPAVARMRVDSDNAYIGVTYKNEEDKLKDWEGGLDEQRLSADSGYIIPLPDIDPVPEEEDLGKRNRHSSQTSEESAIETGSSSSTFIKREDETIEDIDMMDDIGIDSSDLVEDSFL
T2 sequence (P10721 26-976): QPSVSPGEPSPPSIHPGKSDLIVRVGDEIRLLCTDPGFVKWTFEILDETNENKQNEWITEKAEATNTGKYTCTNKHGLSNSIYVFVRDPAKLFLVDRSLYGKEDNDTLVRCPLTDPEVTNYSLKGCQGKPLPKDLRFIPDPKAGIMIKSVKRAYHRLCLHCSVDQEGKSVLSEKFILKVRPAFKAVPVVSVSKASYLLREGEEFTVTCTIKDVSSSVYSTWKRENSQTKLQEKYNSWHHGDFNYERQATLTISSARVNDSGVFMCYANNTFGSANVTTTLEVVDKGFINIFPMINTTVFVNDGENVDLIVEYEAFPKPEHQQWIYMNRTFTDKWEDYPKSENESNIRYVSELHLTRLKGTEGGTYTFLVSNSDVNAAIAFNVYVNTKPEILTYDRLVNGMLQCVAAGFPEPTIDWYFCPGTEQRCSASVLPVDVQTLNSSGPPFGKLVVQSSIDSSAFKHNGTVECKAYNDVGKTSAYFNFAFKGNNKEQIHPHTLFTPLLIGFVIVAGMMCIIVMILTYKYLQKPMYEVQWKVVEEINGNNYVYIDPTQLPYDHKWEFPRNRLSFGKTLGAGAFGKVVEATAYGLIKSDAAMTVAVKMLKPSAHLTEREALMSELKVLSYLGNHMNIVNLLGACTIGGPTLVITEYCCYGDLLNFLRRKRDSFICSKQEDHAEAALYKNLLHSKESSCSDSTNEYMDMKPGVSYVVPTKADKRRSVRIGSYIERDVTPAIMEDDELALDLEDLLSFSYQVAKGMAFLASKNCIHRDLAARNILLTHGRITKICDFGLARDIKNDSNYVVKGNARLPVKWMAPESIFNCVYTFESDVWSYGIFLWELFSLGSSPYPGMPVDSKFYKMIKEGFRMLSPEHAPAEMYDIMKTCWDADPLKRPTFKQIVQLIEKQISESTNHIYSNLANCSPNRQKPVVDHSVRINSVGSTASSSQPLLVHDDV

Compound: 3-[(4-Methylphenyl)sulfanyl]ethyl N-{4-[(6,7-dimethoxy-4-quinolyl)oxy]-2,5-dimethylphenyl}carbamate [Example 139]
- IC50 (PDGF-Ra; Pharmacological Test Example 1): 57 nM
- IC50 (c-kit; h-SCF 50 ng/ml): 80 nM

Compound: CCN(CC)CCCOC(=O)Nc1cc(C)c(Oc2ccnc3cc(OC)c(OC)cc23)cc1C [Example 427, 3-(Diethylamino)propyl N-{4-[(6,7-dimethoxy-4-quinolyl)oxy]-2,5-dimethylphenyl}carbamate]
- IC50 (PDGF-Ra): > 100 nM
- inhibition at 0.1 µM (PDGF-Ra; [1]): 13%
- IC50 (c-kit; 50 ng/ml h-SCF): 364 nM

Compound: COc1cc2ncnc(Oc3ccc(NC(=S)NC(=O)C4(C)CCCCC4)cc3)c2cc1OC [Example 1193, N-{4-[(6,7-Dimethoxy-4-quinazolinyl)oxy]phenyl}-N′-[(1-methylcyclohexyl)carbonyl]thiourea]
- IC50 (PDGF-Ra): < 10 nM
- inhibition at 1 µM (c-kit; figure in parentheses in −( )): 18%

Compound: CCN(CC)CCCOC(=O)Nc1ccc(Oc2ccnc3cc(OC)c(OC)cc23)cc1 [Example 426, 3-(Diethylamino)propyl N-{4-[(6,7-dimethoxy-4-quinolyl)oxy]phenyl}carbamate]
- IC50 (PDGF-Ra): 22 nM
- IC50 (c-kit; 50 ng/ml h-SCF): 272 nM

Compound: COc1cc2nccc(Oc3cc(C)c(NC(=O)Oc4ccc(-c5ccccc5)cc4)cc3C)c2cc1OC [Example 295, 4-Phenylphenyl N-{4-[(6,7-dimethoxy-4-quinolyl)oxy]-2,5-dimethylphenyl}carbamate]
- inhibition at 0.1 µM (PDGF-Ra; [3]): 45%
- IC50 (PDGF-Ra; Pharmacological Test Example 1): > 100 nM
- IC50 (c-kit; h-SCF 50 ng/ml): 178 nM

Compound: COc1cc2ncnc(Oc3ccc(NC(=O)NN4CCCCCC4)cc3)c2cc1OC [Example 602, N-{4-[(6,7-Dimethoxy-4-quinazolinyl)oxy]phenyl}-N′-(1-homopiperidinyl)urea]
- IC50 (PDGF-Ra): 11 nM
- IC50 (c-kit; 50 ng/ml h-SCF): 180 nM

Compound: CCCCOC(=O)Nc1cc(C)c(Oc2ccnc3cc(OC)c(OC)cc23)cc1C [Example 322, Butyl N-{4-[(6,7-dimethoxy-4-quinolyl)oxy]-2,5-dimethylphenyl}carbamate]
- IC50 (PDGF-Ra; Pharmacological Test Example 1): < 10 nM
- IC50 (c-kit; h-SCF 50 ng/ml): 60 nM

Compound: COc1cc2ncnc(Oc3ccc(NC(=S)NC(=O)c4ccccc4C)cc3)c2cc1OC [Example 927, N-{4-[(6,7-Dimethoxy-4-quinazolinyl)oxy]phenyl}-N′-(2-methylbenzoyl)thiourea]
- IC50 (PDGF-Ra): 5 nM
- IC50 (c-kit; h-SCF stimulation): 623 nM

Compound: COc1cc2nccc(Oc3ccc(NC(=O)OCCc4cccc(C(F)(F)F)c4)cc3)c2cc1OC [Example 82, 3-(Trifluoromethyl)phenethyl N-{4-[(6,7-dimethoxy-4-quinolyl)oxy]phenyl}carbamate]
- IC50 (PDGF-Ra; Pharmacological Test Example 1): 10 nM
- IC50 (c-kit; h-SCF 50 ng/ml): 176 nM

Compound: COc1cc2ncnc(Oc3ccc(NC(=S)NCCCN4CCCC4)cc3)c2cc1OC [Example 537, N-{4-[(6,7-Dimethoxy-4-quinazolinyl)oxy]phenyl}-N′-[3-(1-pyrrolidinyl)propyl]thiourea]
- IC50 (PDGF-Ra): > 100 nM
- inhibition at 0.1 µM (PDGF-Ra; [1]): 34%
- inhibition at 1 µM (c-kit; [2]): 34%

Compound: COc1cc2ncnc(Oc3ccc(NC(=O)OC4CCCCCC4)c(Cl)c3)c2cc1OC [Example 343, Cycloheptyl N-{2-chloro-4-[(6,7-dimethoxy-4-quinazolinyl)oxy]phenyl}carbamate]
- IC50 (PDGF-Ra; Pharmacological Test Example 1): < 10 nM
- IC50 (c-kit; h-SCF 50 ng/ml): 232 nM

Compound: COc1cc2nccc(Oc3ccc(NC(=O)OCCCSc4ccc(C)cc4)cc3)c2cc1OC [Example 37, 3-[(4-Methylphenyl)sulfanyl)propyl N-{4-[(6,7-dimethoxy-4-quinolyl)oxy]phenyl}carbamate]
- IC50 (PDGF-Ra; Pharmacological Test Example 1): < 10 nM
- IC50 (c-kit; h-SCF 50 ng/ml): < 30 nM

Compound: COc1cc2ncnc(Oc3ccc(NC(=O)OCCCSc4ccc(C)cc4)cc3)c2cc1OC [Example 40, 3-[(4-Methylphenyl)sulfanyl)propyl N-{4-[(6,7-dimethoxy-4-quinazolinyl)oxy]phenyl}carbamate]
- IC50 (PDGF-Ra; Pharmacological Test Example 1): < 10 nM
- IC50 (c-kit; h-SCF 50 ng/ml): 55 nM

Compound: COc1cc2nccc(Oc3cc(C)c(NC(=O)OCCCN4CCOCC4)cc3C)c2cc1OC [Example 422, 3-Morpholinopropyl N-{4-[(6,7-dimethoxy-4-quinolyl)oxy]-2,5-dimethylphenyl}carbamate]
- IC50 (PDGF-Ra): < 10 nM
- IC50 (c-kit; 50 ng/ml h-SCF): 119 nM

Compound: CCCCCCCCCCCCCCCCCCOC(=O)Nc1ccc(Oc2ccnc3cc(OC)c(OC)cc23)cc1 [Example 326, Octadecyl N-{4-[(6,7-dimethoxy-4-quinolyl)oxy]phenyl}carbamate]
- inhibition at 0.1 µM (PDGF-Ra; [3]): 31%
- IC50 (PDGF-Ra; Pharmacological Test Example 1): > 100 nM
- inhibition at 1 µM (c-kit; figure in parentheses in −( )): 18%

Compound: COc1cc2nccc(Oc3ccc(NC(=S)NC(=O)c4ccc(C)s4)cc3)c2cc1OC [Example 1146, N-{4-[(6,7-Dimethoxy-4-quinolyl)oxy]phenyl}-N′-[(5-methyl-2-thienyl)carbonyl]thiourea]
- IC50 (PDGF-Ra): 23 nM
- IC50 (c-kit; h-SCF stimulation): 552 nM

Compound: COc1cc2nccc(Oc3ccc(NC(=O)OC(C)C)c(C)c3C)c2cc1OC [Example 325, Isopropyl N-{4-[(6,7-dimethoxy-4-quinolyl)oxy]-2,3-dimethylphenyl}carbamate]
- IC50 (PDGF-Ra; Pharmacological Test Example 1): < 10 nM
- IC50 (c-kit; h-SCF 50 ng/ml): 46 nM

The next lines start with the values.

- IC50 (PDGF-Ra; Pharmacological Test Example 1): < 10 nM
- IC50 (c-kit; h-SCF 50 ng/ml): < 30 nM
Compound: COc1cc2ncnc(Oc3ccc(NC(=O)OCCCOc4ccc(Cl)cc4)cc3)c2cc1OC [Example 30, 3-(4-Chlorophenoxy)propyl N-{4-[(6,7-dimethoxy-4-quinazolinyl)oxy]phenyl}carbamate]

- IC50 (PDGF-Ra): 27 nM
- IC50 (c-kit; 50 ng/ml h-SCF): 664 nM
Compound: COc1cc2ncnc(Oc3ccc(NC(=O)N[C@@H]4CCN(Cc5ccccc5)C4)c(Cl)c3)c2cc1OC [Example 575, N-[(3R)-1-Benzyltetrahydro-1H-3-pyrrolyl]-N′-{2-chloro-4-[(6,7-dimethoxy-4-quinazolinyl)oxy]phenyl}urea]

- IC50 (PDGF-Ra): > 100 nM
- inhibition at 0.1 µM (PDGF-Ra; [1]): 21%
- inhibition at 1 µM (c-kit; [2]): 21%
Compound: COc1cc2ncnc(Oc3ccc(NC(=S)NN4CCCCC4)cc3)c2cc1OC [Example 524, N-{4-[(6,7-Dimethoxy-4-quinazolinyl)oxy]phenyl}-N′-(1-piperidinyl)thiourea]

- IC50 (PDGF-Ra; Pharmacological Test Example 1): 12 nM
- inhibition at 1 µM (c-kit; figure in parentheses in −( )): 27%
Compound: COc1cc2ncnc(Oc3ccc(NC(=O)OC(C)c4cccc(F)c4)c(Cl)c3)c2cc1OC (centres unmarked) [Example 101, 1-(3-Fluorophenyl)ethyl N-{2-chloro-4-[(6,7-dimethoxy-4-quinazolinyl)oxy]phenyl}carbamate]

- IC50 (PDGF-Ra; Pharmacological Test Example 1): 8 nM
- IC50 (c-kit; h-SCF 50 ng/ml): 111 nM
Compound: COc1cc2nccc(Oc3ccc(NC(=O)OC4CCCCC4)cc3)c2cc1OC [Example 230, Cyclohexyl N-{4-[(6,7-dimethoxy-4-quinolyl)oxy]phenyl}carbamate]

- IC50 (PDGF-Ra): > 100 nM
- inhibition at 0.1 µM (PDGF-Ra; [1]): 38%
- inhibition at 1 µM (c-kit; [2]): 8%
Compound: COc1cc2ncnc(Oc3ccc(NC(=S)NCCN(C)C)cc3)c2cc1OC [Example 529, N-{4-[(6,7-Dimethoxy-4-quinazolinyl)oxy]phenyl}-N′-(2-dimethylaminoethyl) thiourea]

- IC50 (PDGF-Ra): 70 nM
- IC50 (c-kit; 50 ng/ml h-SCF): 254 nM
Compound: COc1cc2nccc(Oc3cc(C)c(NC(=S)NCCN4CCOCC4)cc3C)c2cc1OC [Example 545, N-{4-[(6,7-Dimethoxy-4-quinolyl)oxy]-2,5-dimethylphenyl}-N′-[2-(1-morpholino)ethyl]thiourea]

- IC50 (PDGF-Ra; Pharmacological Test Example 1): < 10 nM
- IC50 (c-kit; h-SCF 50 ng/ml): 288 nM
Compound: COc1cccc(C(C)OC(=O)Nc2ccc(Oc3ncnc4cc(OC)c(OC)cc34)cc2)c1 (centres unmarked) [Example 55, 1-(3-Methoxyphenyl)ethyl N-{4-[(6,7-dimethoxy-4-quinazolinyl)oxy]phenyl}carbamate]

- IC50 (PDGF-Ra; Pharmacological Test Example 1): 12 nM
- IC50 (c-kit; h-SCF 50 ng/ml): 712 nM
Compound: CCCC(CCC)OC(=O)Nc1cc(C)c(Oc2ccnc3cc(OC)c(OC)cc23)cc1C [Example 333, 1-Propylbutyl N-{4-[(6,7-dimethoxy-4-quinolyl)oxy]-2,5-dimethylphenyl}carbamate]

- IC50 (PDGF-Ra; Pharmacological Test Example 1): < 10 nM
- IC50 (c-kit; h-SCF 50 ng/ml): 45 nM
Compound: COc1cc2ncnc(Oc3ccc(NC(=O)OCCCSc4ccccn4)cc3)c2cc1OC [Example 175, 3-(2-Pyridylsulfanyl)propyl N-{4-[(6,7-dimethoxy-4-quinazolinyl)oxy]phenyl}carbamate]

- IC50 (PDGF-Ra; Pharmacological Test Example 1): < 10 nM
- IC50 (c-kit; h-SCF 50 ng/ml): 162 nM
Compound: COc1cccc(OCCCOC(=O)Nc2ccc(Oc3ccnc4cc(OC)c(OC)cc34)c(C)c2C)c1 [Example 48, 3-(3-Methoxyphenoxy)propyl N-{4-[(6,7-dimethoxy-4-quinolyl)oxy]-2,3-dimethylphenyl}carbamate]

- IC50 (PDGF-Ra): 33 nM
- IC50 (c-kit; 50 ng/ml h-SCF): 445 nM
Compound: CCN(CC)CCOC(=O)Nc1ccc(Oc2ccnc3cc(OC)c(OC)cc23)cc1 [Example 435, 2-(Diethylamino)ethyl N-{4-[(6,7-dimethoxy-4-quinolyl)oxy]phenyl}carbamate]

- IC50 (PDGF-Ra): > 100 nM
- inhibition at 0.1 µM (PDGF-Ra; [1]): 45%
- inhibition at 1 µM (c-kit; [2]): 34%
Compound: COc1cc2ncnc(Oc3ccc(NC(=S)NCCN4CCCC4)cc3)c2cc1OC [Example 530, N-{4-[(6,7-Dimethoxy-4-quinazolinyl)oxy]phenyl}-N′-[2-(1-pyrrolidyl)ethyl]thiourea]

- IC50 (PDGF-Ra): 14 nM
- IC50 (c-kit; 50 ng/ml h-SCF): 431 nM
Compound: CCCCC(=O)NC(=S)Nc1ccc(Oc2ccnc3cc(OC)c(OC)cc23)c(Cl)c1 [Example 719, N-{3-Chloro-4-[(6,7-dimethoxy-4-quinolyl)oxy]phenyl}-N′-pentanoylthiourea]

- IC50 (PDGF-Ra; Pharmacological Test Example 1): 15 nM
- IC50 (c-kit; h-SCF 50 ng/ml): 52 nM
Compound: COc1cc2ncnc(Oc3ccc(NC(=O)OCCSc4cc(C)ccc4C)cc3)c2cc1OC [Example 168, 2-[(2,5-Dimethylphenyl)sulfanyl]ethyl N-{4-[(6,7-dimethoxy-4-quinazolinyl)oxy]phenyl}carbamate]
